≈ marks a conversion by molar mass, not a printed value.
System: Mycobacterium tuberculosis variant bovis
Experiment: Antitubercular activity against Mycobacterium bovis
Format: functional

Structure (SMILES): Fc1ccc(-c2cn(Cc3csc(-c4ccccc4)n3)nn2)cc1
- MIC: 1.69 mg/L (≈ 5.02 µM)

— ChEMBL document CHEMBL4406816, “Role of sulphur-heterocycles in medicinal chemistry: An update” (Eur J Med Chem, 2019)
